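Cells were grown in 96-well plates and exposed to each compound for 48 hours at five concentrations; endpoints were interpolated linearly between bracketing concentrations, or set to the highest concentration if not reached. GI50 = concentration required for 50% inhibition of growth. TGI: concentration producing complete growth inhibition.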
Tests used:
Test in all cases: NCI tumour cell line growth inhibition, 48 h
[1] = system: UACC-257 melanoma
[2] = system: RXF 393 renal
[3] = system: ACHN renal
[4] = system: MDA-MB-435
[5] = system: SK-OV-3 ovarian
[6] = system: SF-268 CNS
[7] = system: HCT-116 colon
[8] = system: RPMI-8226 leukemia
[9] = system: BT-549 breast
[10] = system: SN12C renal
[11] = system: NCI-H23 lung
[12] = system: LOX IMVI melanoma
[13] = system: 786-0 renal
[14] = system: A498 renal
[15] = system: OVCAR-8 ovarian
[16] = system: SNB-19 CNS
[17] = system: HCT-15 colon
[18] = system: M14 melanoma
[19] = system: OVCAR-5 ovarian
[20] = system: CCRF-CEM leukemia
[21] = system: SNB-75 CNS
[22] = system: U251 CNS
[23] = system: HT29 colon
[24] = system: NCI-H522 lung
[25] = system: A549 NSCLC
[26] = system: SK-MEL-5 melanoma
[27] = system: OVCAR-4 ovarian
[28] = system: MALME-3M melanoma
[29] = system: MDA-MB-231 breast
[30] = system: KM12 colon
[31] = system: SF-295 CNS
[32] = system: HL-60(TB) leukemia
[33] = system: K-562 leukemia
[34] = system: NCI-H460 lung
[35] = system: NCI/ADR-RES ovarian
[36] = system: TK-10 renal
[37] = system: DU-145 prostate
[38] = system: HOP-92 NSCLC
[39] = system: SF-539 CNS
[40] = system: COLO 205 colon
[41] = system: UACC-62 melanoma
[42] = system: SK-MEL-28 melanoma
[43] = system: HOP-62 NSCLC
[44] = system: T-47D breast
[45] = system: SR leukemia
[46] = system: PC-3 prostate
[47] = system: MOLT-4 leukemia
[48] = system: SK-MEL-2 melanoma
[49] = system: CAKI-1 renal
[50] = system: NCI-H226 lung
[51] = system: OVCAR-3 ovarian
[52] = system: HCC-2998 colon
[53] = system: EKVX NSCLC
[54] = system: HS 578T breast
[55] = system: MCF7 breast
[56] = system: IGROV1 ovarian
[57] = system: UO-31 renal
[58] = system: SW-620 colon

Compound `CCCC/C(=N\N=C(N)N)c1ccc(F)cc1` has a GI50 [1] of 4.4 µM, a TGI [1] of 13.9 µM and a GI50 [2] of 2.04 µM. The TGI [2] was 5.81 µM, the GI50 [3] was 5.33 µM and the TGI [3] was 17.5 µM. The GI50 [4] was 0.381 µM, the TGI [4] was 2.22 µM and the GI50 [5] was 2.61 µM. It also gave a TGI [5] of 11 µM, a GI50 [6] of 5.58 µM and a TGI [6] of 20.8 µM. It also gave a GI50 [7] of 3.51 µM, a TGI [7] of 14.6 µM and a GI50 [8] of 2.67 µM. The TGI [8] was 17.4 µM, the GI50 [9] was 3.48 µM and the TGI [9] was 12.5 µM. It also gave a GI50 [10] of 4.37 µM, a TGI [10] of 17.3 µM and a GI50 [11] of 3.34 µM. It also gave a TGI [11] of 17.1 µM, a GI50 [12] of 1.33 µM and a TGI [12] of 13.5 µM. The GI50 [13] was 3.93 µM, the TGI [13] was 16.2 µM and the GI50 [14] was 2.59 µM. For the same compound, the TGI [14] was 8.08 µM, the GI50 [15] was 3.61 µM and the TGI [15] was 15.2 µM. It also gave a GI50 [16] of 2.64 µM, a TGI [16] of 13.8 µM and a GI50 [17] of 2.49 µM. It also gave a TGI [17] of 14.2 µM, a GI50 [18] of 2.35 µM and a TGI [18] of 10.4 µM. For the same compound, the GI50 [19] was 5.08 µM, the TGI [19] was 17.8 µM and the GI50 [20] was 2.23 µM. The TGI [20] was 11.7 µM, the GI50 [21] was 2.36 µM and the TGI [21] was 12.5 µM. It also gave a GI50 [22] of 2.36 µM, a TGI [22] of 10.2 µM and a GI50 [23] of 2.23 µM. The GI50 [24] was 3.79 µM, the TGI [24] was 16.5 µM and the GI50 [25] was 4.66 µM. For the same compound, the TGI [25] was 16.7 µM, the GI50 [26] was 1.48 µM and the TGI [26] was 4.27 µM. It also gave a GI50 [27] of 5.27 µM, a TGI [27] of 20 µM and a GI50 [28] of 4.13 µM. It also gave a TGI [28] of 18.5 µM, a GI50 [29] of 5.42 µM and a TGI [29] of 18.9 µM. It also gave a GI50 [30] of 2.79 µM, a TGI [30] of 14 µM and a GI50 [31] of 2.84 µM. For the same compound, the TGI [31] was 12.3 µM, the GI50 [32] was 2.29 µM and the TGI [32] was 6.09 µM. The GI50 [33] was 0.469 µM, the TGI [33] was 11.2 µM and the GI50 [34] was 3.9 µM. It also gave a TGI [34] of 14.7 µM, a GI50 [35] of 2.38 µM and a TGI [35] of 8.29 µM. It also gave a GI50 [36] of 7.83 µM, a TGI [36] of 20.8 µM and a GI50 [37] of 3.89 µM. The TGI [37] was 14.7 µM, the GI50 [38] was 2.13 µM and the TGI [38] was 8.93 µM. For the same compound, the GI50 [39] was 2.77 µM, the TGI [39] was 8.59 µM and the GI50 [40] was 1.78 µM. The TGI [40] was 3.41 µM, the GI50 [41] was 3.14 µM and the TGI [41] was 14.8 µM. For the same compound, the GI50 [42] was 4.21 µM, the TGI [42] was 17.6 µM and the GI50 [43] was 3.81 µM. For the same compound, the TGI [43] was 15.8 µM, the GI50 [44] was 2.61 µM and the TGI [44] was 15.6 µM. For the same compound, the GI50 [45] was 0.481 µM, the TGI [45] was 11.9 µM and the GI50 [46] was 2.85 µM. For the same compound, the TGI [46] was 14.3 µM, the GI50 [47] was 3.35 µM and the TGI [47] was 24.4 µM. It also gave a GI50 [48] of 3.09 µM, a TGI [48] of 9.4 µM and a GI50 [49] of 3.44 µM. For the same compound, the TGI [49] was 15.1 µM, the GI50 [50] was 2.78 µM and the TGI [50] was 13.3 µM. It also gave a GI50 [51] of 2.9 µM, a TGI [51] of 9.5 µM and a GI50 [52] of 2.77 µM. It also gave a TGI [52] of 11 µM, a GI50 [53] of 4.5 µM and a TGI [53] of 25.5 µM. For the same compound, the GI50 [54] was 2.88 µM, the TGI [54] was 8.81 µM and the GI50 [55] was 0.758 µM. For the same compound, the TGI [55] was 11.9 µM, the GI50 [56] was 5.06 µM and the TGI [56] was 20.9 µM. The GI50 [57] was 5.28 µM and the TGI [57] was 20.1 µM.
In the case of `COc1cccc(-c2nn(-c3ccccc3)cc2-c2ccnc(NCCNC(=O)Nc3ccc(Cl)c(Cl)c3)c2)c1`, the GI50 [1] is reported as 3.63 µM, the TGI [1] is reported as 20.3 µM and the GI50 [2] is reported as 1.2 µM. It also gave a TGI [2] of 3.15 µM, a GI50 [3] of 2.79 µM and a TGI [3] of 10.2 µM. It also gave a GI50 [58] of 2.7 µM, a TGI [58] of 11.1 µM and a GI50 [4] of 1.86 µM. It also gave a TGI [4] of 4.26 µM, a GI50 [5] of 4.06 µM and a TGI [5] of 14.4 µM. For the same compound, the GI50 [6] was 2.43 µM, the TGI [6] was 10.3 µM and the GI50 [7] was 2.17 µM. The TGI [7] was 5.33 µM, the GI50 [8] was 2.6 µM and the TGI [8] was 7.52 µM. It also gave a GI50 [9] of 2.94 µM, a TGI [9] of 10.4 µM and a GI50 [10] of 2.39 µM. The TGI [10] was 5.96 µM, the GI50 [11] was 2.46 µM and the TGI [11] was 11.6 µM. It also gave a GI50 [12] of 1.66 µM, a TGI [12] of 3.21 µM and a GI50 [13] of 1.55 µM. The TGI [13] was 3.28 µM, the GI50 [15] was 2.98 µM and the TGI [15] was 11.2 µM. For the same compound, the GI50 [16] was 2.63 µM, the TGI [16] was 9.8 µM and the GI50 [17] was 3 µM. It also gave a TGI [17] of 10.7 µM, a GI50 [18] of 1.67 µM and a TGI [18] of 4.05 µM. It also gave a GI50 [19] of 2.25 µM, a TGI [19] of 10.1 µM and a GI50 [21] of 1.43 µM. For the same compound, the TGI [21] was 5.96 µM, the GI50 [22] was 2.65 µM and the TGI [22] was 7.73 µM. For the same compound, the GI50 [23] was 1.91 µM, the TGI [23] was 5.39 µM and the GI50 [24] was 2.18 µM. It also gave a TGI [24] of 5.96 µM, a GI50 [25] of 3.38 µM and a TGI [25] of 12.5 µM. The GI50 [26] was 1.95 µM, the TGI [26] was 3.71 µM and the GI50 [27] was 3.25 µM. The TGI [27] was 16.2 µM, the GI50 [28] was 1.89 µM and the TGI [28] was 4.66 µM. It also gave a GI50 [29] of 2.04 µM, a TGI [29] of 5.04 µM and a GI50 [30] of 2.27 µM. The TGI [30] was 5.79 µM, the GI50 [31] was 2.41 µM and the TGI [31] was 7.28 µM. For the same compound, the GI50 [32] was 2.43 µM, the TGI [32] was 6.85 µM and the GI50 [33] was 3.09 µM. It also gave a TGI [33] of 11.1 µM, a GI50 [34] of 1.88 µM and a TGI [34] of 4.33 µM. The GI50 [35] was 2.08 µM, the TGI [35] was 5.64 µM and the GI50 [36] was 4.78 µM. The TGI [36] was 18.9 µM, the GI50 [37] was 3.52 µM and the TGI [37] was 12.7 µM. For the same compound, the GI50 [38] was 1.37 µM, the TGI [38] was 5.48 µM and the GI50 [39] was 1.93 µM. It also gave a TGI [39] of 4.17 µM, a GI50 [40] of 2.07 µM and a TGI [40] of 4.44 µM. The GI50 [41] was 1.84 µM, the TGI [41] was 4.51 µM and the GI50 [42] was 2.03 µM. The TGI [42] was 4.59 µM, the GI50 [43] was 3.39 µM and the TGI [43] was 12.7 µM. The GI50 [44] was 3.85 µM, the TGI [44] was 24.7 µM and the GI50 [45] was 1.51 µM. The TGI [45] was 6.02 µM, the GI50 [46] was 2.5 µM and the TGI [46] was 8.36 µM. The GI50 [47] was 2.31 µM, the TGI [47] was 7.11 µM and the GI50 [48] was 2.09 µM. The TGI [48] was 5.17 µM, the GI50 [49] was 2.79 µM and the TGI [49] was 11.1 µM. For the same compound, the GI50 [50] was 3.63 µM, the TGI [50] was 18.7 µM and the GI50 [51] was 2.59 µM. For the same compound, the TGI [51] was 8.2 µM, the GI50 [52] was 1.88 µM and the TGI [52] was 3.78 µM. For the same compound, the GI50 [53] was 2.48 µM, the TGI [53] was 16.7 µM and the GI50 [54] was 1.96 µM. The TGI [54] was 5.19 µM, the GI50 [55] was 2.46 µM and the TGI [55] was 11.7 µM. The GI50 [56] was 3.61 µM, the TGI [56] was 15.6 µM and the GI50 [57] was 1.44 µM. The TGI [57] was 5.03 µM.

Source: PubChem BioAssay (NCI)
